In the supplement of paper PMC11208160:

Assay: recombinant UMI read abundance after kanamycin selection (control-corrected) (log10(CPM+1)); higher = more efficient recombination; extreme values may be limits of the assay; sequences stand for … in AGTGCAGAGAAAATCGGCCAGTTTTCTCTGCCTGCAGTCCGCATGCCGTGGGACCCCTTGGGTTCTAACCTGTTGCCTAGATTTATGCAGCGGACTGCCTTTCTCCCAAAGTGATAAACCGG…AGGTTGGTTTCACT; site = the 11-nt donor
Procedure, shortened: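 The measure is log10(CPM+1) for recombinant UMIs. These were PCR-amplified across the donor–target junction and sequenced after Escherichia coli carrying a donor and donor-binding-loop pair library and a target plasmid with T7-inducible IS621 bridge recombinase was plated on IPTG (0.07 mM) plus kanamycin or unselected. CPM were averaged over two replicates and scaled by control-derived factors.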
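Note: IS621 bridge recombinase in Escherichia coli cells against a fixed T5 target plasmid.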

Row | Sequence | recombinant UMI read abundance (log10)
1 | TGGACAGCATGGACCGGTTTTCCCGGTAATCCGTATTTGCT (site TGGACAGCTAG) | 2.26
2 | TGGACATCATGGACCGGTTTTCCCGGTAATCCGTATTTGCT (site AGGACATCTAG) | 1.44
3 | TGGACATCATGGACCGGTTTTCCCGGTAATCCGTATTTGCT (site CGGACATCTAG) | 2.04
4 | TGGACATCATGGACCGGTTTTCCCGGTAATCCGTATTTGCT (site GGGACATCTAG) | 0.348
5 | TGGACATCATGGACCGGTTTTCCCGGTAATCCGTATTTGCT (site TGGACATCTAG) | 1.69
6 | TGGACCACATGGACCGGTTTTCCCGGTAATCCGTATTTGAT (site TGGACCACTAT) | 0.721
7 | TGGAGCGCATGGACCGGTTTTCCCGGTAATCCGTATTTGGG (site TGGAGCGCTCC) | 0.0132
8 | TGGAGTTCATGGACCGGTTTTCCCGGTAATCCGTATTTGTA (site TGGAGTTCTTA) | 1.31
9 | TGGATTTCATGGACCGGTTTTCCCGGTAATCCGTATTTGCA (site TGGATTTCTTG) | 0.673
10 | TGGCATCCATGGACCGGTTTTCCCGGTAATCCGTATTTGTT (site CGGAATCCTAA) | 0
11 | TGGCATCCATGGACCGGTTTTCCCGGTAATCCGTATTTGTT (site TGGCATCCTAA) | 0.165
12 | TGGCCACCATGGACCGGTTTTCCCGGTAATCCGTATTTGTT (site TGGCCACCTAA) | 0.0258
13 | TGGCCAGCATGGACCGGTTTTCCCGGTAATCCGTATTTGGC (site TGGCCAGCTGC) | 0
14 | TGGCCAGCATGGACCGGTTTTCCCGGTAATCCGTATTTGGC (site TGGCCCGCTGC) | 0
15 | TGGCCAGCATGGACCGGTTTTCCCGGTAATCCGTATTTGGC (site TGGCCGGCTGC) | 0
16 | TGGCCAGCATGGACCGGTTTTCCCGGTAATCCGTATTTGGC (site TGGCCTGCTGC) | 0.017
17 | TGGCCGACATGGACCGGTTTTCCCGGTAATCCGTATTTGGC (site TGGCCGACTGC) | 0
18 | TGGCCGACATGGACCGGTTTTCCCGGTAATCCGTATTTGGC (site TGGCCGCCTGC) | 0
19 | TGGCCGACATGGACCGGTTTTCCCGGTAATCCGTATTTGGC (site TGGCCGGCTGC) | 0.00648
20 | TGGCCGACATGGACCGGTTTTCCCGGTAATCCGTATTTGGC (site TGGCCGTCTGC) | 0
21 | TGGCCGGCATGGACCGGTTTTCCCGGTAATCCGTATTTGAC (site TGGCCGGCTGA) | 0.00628
22 | TGGCCGGCATGGACCGGTTTTCCCGGTAATCCGTATTTGAC (site TGGCCGGCTGC) | 0
23 | TGGCCGGCATGGACCGGTTTTCCCGGTAATCCGTATTTGAC (site TGGCCGGCTGG) | 0
24 | TGGCCGGCATGGACCGGTTTTCCCGGTAATCCGTATTTGAC (site TGGCCGGCTGT) | 1.4
25 | TGGCCGGCATGGACCGGTTTTCCCGGTAATCCGTATTTGGT (site TGGCCGGCTAC) | 0.0121

Row | Sequence | recombinant UMI read abundance (log10)
26 | TGGCCGGCATGGACCGGTTTTCCCGGTAATCCGTATTTGGT (site TGGCCGGCTCC) | 0.022
27 | TGGCCGGCATGGACCGGTTTTCCCGGTAATCCGTATTTGGT (site TGGCCGGCTGC) | 0
28 | TGGCCGGCATGGACCGGTTTTCCCGGTAATCCGTATTTGGT (site TGGCCGGCTTC) | 0.0272
29 | TGGCTCACATGGACCGGTTTTCCCGGTAATCCGTATTTGTG (site TGGCTCACTCA) | 0.0236
30 | TGGCTTCCATGGACCGGTTTTCCCGGTAATCCGTATTTGCT (site TGGCTTCCTAG) | 0
31 | TGGGAAACATGGACCGGTTTTCCCGGTAATCCGTATTTGGT (site TGGGAAACTAC) | 1.29
32 | TGGGCCACATGGACCGGTTTTCCCGGTAATCCGTATTTGCA (site TGGGCCACTTG) | 1.45
33 | TGGGCGGCATGGACCGGTTTTCCCGGTAATCCGTATTTGGC (site TGGACGGCTGC) | 1.49
34 | TGGGCGGCATGGACCGGTTTTCCCGGTAATCCGTATTTGGC (site TGGCCGGCTGC) | 0
35 | TGGGCGGCATGGACCGGTTTTCCCGGTAATCCGTATTTGGC (site TGGGCGGCTGC) | 2.09
36 | TGGGCGGCATGGACCGGTTTTCCCGGTAATCCGTATTTGGC (site TGGTCGGCTGC) | 0
37 | TGGGCTACATGGACCGGTTTTCCCGGTAATCCGTATTTGCA (site TGGGCTACTTG) | 1.79
38 | TGGGTAACATGGACCGGTTTTCCCGGTAATCCGTATTTGAC (site TGGGTAACTGT) | 1.61
39 | TGGGTAGCATGGACCGGTTTTCCCGGTAATCCGTATTTGGG (site TGGGTAGCTCC) | 0
40 | TGGGTGACATGGACCGGTTTTCCCGGTAATCCGTATTTGAG (site TGGGTGACTCT) | 0.83
41 | TGGTAACCATGGACCGGTTTTCCCGGTAATCCGTATTTGTG (site TGGTAACCTCA) | 0.0137
42 | TGGTCAACATGGACCGGTTTTCCCGGTAATCCGTATTTGCG (site TGGTCAACTCG) | 0.0115
43 | TGGTCCTCATGGACCGGTTTTCCCGGTAATCCGTATTTGTC (site TGGTCCTCTGA) | 1.33
44 | TGGTCGGCATGGACCGGTTTTCCCGGTAATCCGTATTTGGC (site TGGACGGCTGC) | 0
45 | TGGTCGGCATGGACCGGTTTTCCCGGTAATCCGTATTTGGC (site TGGCCGGCTGC) | 0.682
46 | TGGTCGGCATGGACCGGTTTTCCCGGTAATCCGTATTTGGC (site TGGGCGGCTGC) | 0.00726
47 | TGGTCGGCATGGACCGGTTTTCCCGGTAATCCGTATTTGGC (site TGGTCGGCTGC) | 0.268
48 | TGGTCTGCATGGACCGGTTTTCCCGGTAATCCGTATTTGCG (site ACCGTCTCTGA) | 0
49 | TGGTGTACATGGACCGGTTTTCCCGGTAATCCGTATTTGAA (site TGGTGTACTTT) | 0.131
50 | TGGTTTCCATGGACCGGTTTTCCCGGTAATCCGTATTTGCC (site TGGTTTCCTGG) | 0

Row | Sequence | recombinant UMI read abundance (log10)
51 | TGTAAAGCATGGACCGGTTTTCCCGGTAATCCGTATTTGAC (site TGTAAAGCTGT) | 0.0139
52 | TGTACAACATGGACCGGTTTTCCCGGTAATCCGTATTTGCT (site TGTACAACTAG) | 0.836
53 | TGTACCCCATGGACCGGTTTTCCCGGTAATCCGTATTTGTA (site TGTACCCCTTA) | 0.292
54 | TGTACCCCATGGACCGGTTTTCCCGGTAATCCGTATTTGTA (site TGTCCCCCTTA) | 0.253
55 | TGTACCCCATGGACCGGTTTTCCCGGTAATCCGTATTTGTA (site TGTGCCCCTTA) | 0
56 | TGTACCCCATGGACCGGTTTTCCCGGTAATCCGTATTTGTA (site TGTTCCCCTTA) | 0.00713
57 | TGTACCGCATGGACCGGTTTTCCCGGTAATCCGTATTTGGG (site TGTACCGCTCC) | 0.0251
58 | TGTACCTCATGGACCGGTTTTCCCGGTAATCCGTATTTGGG (site TGTACCTCTCC) | 0.0503
59 | TGTACCTCATGGACCGGTTTTCCCGGTAATCCGTATTTGGT (site TGTACCTCTAC) | 0.0562
60 | TGTACGTCATGGACCGGTTTTCCCGGTAATCCGTATTTGTT (site AGTACGTCTAA) | 0.00241
61 | TGTACGTCATGGACCGGTTTTCCCGGTAATCCGTATTTGTT (site CGTACGTCTAA) | 0.031
62 | TGTACGTCATGGACCGGTTTTCCCGGTAATCCGTATTTGTT (site GGTACGTCTAA) | 0.031
63 | TGTACGTCATGGACCGGTTTTCCCGGTAATCCGTATTTGTT (site TGTACGTCTAA) | 0.00887
64 | TGTACTACATGGACCGGTTTTCCCGGTAATCCGTATTTGGT (site TGTACTACTAC) | 0.00344
65 | TGTAGAACATGGACCGGTTTTCCCGGTAATCCGTATTTGCC (site TGTAGAACTGG) | 0.754
66 | TGTAGAACATGGACCGGTTTTCCCGGTAATCCGTATTTGGG (site TGTAGAACTCC) | 0.00647
67 | TGTAGTACATGGACCGGTTTTCCCGGTAATCCGTATTTGAC (site TGTAGTACTGT) | 0.509
68 | TGTATCGCATGGACCGGTTTTCCCGGTAATCCGTATTTGCT (site TGTATCGCTAG) | 1.57
69 | TGTATTTCATGGACCGGTTTTCCCGGTAATCCGTATTTGGG (site TGTATTTCTCC) | 0.402
70 | TGTCGTCCATGGACCGGTTTTCCCGGTAATCCGTATTTGCA (site TGTCGTCCTTG) | 0.616
71 | TGTCTTCCATGGACCGGTTTTCCCGGTAATCCGTATTTGTC (site TGTCTTCCTGA) | 0
72 | TGTGATTCATGGACCGGTTTTCCCGGTAATCCGTATTTGTT (site TGTGATTCTAA) | 0
73 | TGTTAACCATGGACCGGTTTTCCCGGTAATCCGTATTTGTC (site TGTTAACCTGA) | 0
74 | TGTTAGACATGGACCGGTTTTCCCGGTAATCCGTATTTGAG (site AGTTAGACTCT) | 0.103
75 | TGTTAGACATGGACCGGTTTTCCCGGTAATCCGTATTTGAG (site CGTTAGACTCT) | 0.204
